Where “and” joins values, the source holds several entries; their conditions need not be identical. Identical values can stand only once. Inconclusive results and toxic doses are left out. No stated cut-off is given here; in the data, active means T/C of 150% or more; inactive means T/C below 125%. Square brackets hold non-standard residues; d marks the D form. Peptide text beside a SMILES is read from it. * marks the point of attachment. ξ: configuration not given here. Cbz = O=C(OCc1ccccc1)*; OBn = c1ccc(CO*)cc1; ξP = O=C(O)C1CCCN1
System: L1210 leukemia ip in BDF1 mice, survival T/C
Test: NCI In Vivo Anticancer Drug Screen. Data for tumor model L1210 Leukemia (intraperitoneal) in B6D2F1 (BDF1) mice
Conditions: endpoint: mean survival time, higher = longer survival
Outline: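 Transplantable tumor model; survival measured in treated vs vehicle control mice. Value = treated/control.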

[1] = dose: 100.0 mg/kg/injection, schedule: Q04DX002 (ip), vehicle: saline with Tween-80
[2] = dose: 200.0 mg/kg/injection, schedule: Q04DX002 (ip), vehicle: saline with Tween-80
[3] = dose: 100.0 mg/kg/injection, schedule: Q01DX009 (ip), vehicle: saline
[4] = dose: 200.0 mg/kg/injection, schedule: Q01DX009 (ip), vehicle: saline
[5] = dose: 400.0 mg/kg/injection, schedule: Q01DX009 (ip), vehicle: saline
[6] = dose: 100.0 mg/kg/injection, schedule: Q01DX001 (ip), vehicle: saline
[7] = dose: 200.0 mg/kg/injection, schedule: Q01DX001 (ip), vehicle: saline
[8] = dose: 400.0 mg/kg/injection, schedule: Q01DX001 (ip), vehicle: saline
[9] = dose: 100.0 mg/kg/injection, schedule: Q01DX009 (ip), vehicle: Klucel (hydroxypropylcellulose) (HPC)
[10] = dose: 200.0 mg/kg/injection, schedule: Q01DX009 (ip), vehicle: Klucel (hydroxypropylcellulose) (HPC)
[11] = dose: 400.0 mg/kg/injection, schedule: Q01DX009 (ip), vehicle: Klucel (hydroxypropylcellulose) (HPC)
[12] = dose: 100.0 mg/kg/injection, schedule: Q04DX002 (ip), vehicle: saline
[13] = dose: 100.0 mg/kg/injection, schedule: Q04DX003 (ip), vehicle: Klucel (hydroxypropylcellulose) (HPC)
[14] = dose: 200.0 mg/kg/injection, schedule: Q04DX003 (ip), vehicle: Klucel (hydroxypropylcellulose) (HPC)
[15] = dose: 400.0 mg/kg/injection, schedule: Q04DX003 (ip), vehicle: Klucel (hydroxypropylcellulose) (HPC)

Measured: T/C

O=c1[nH][nH]c(=O)n1-c1ccccc1
inactive: dose: 25.0 mg/kg/injection, schedule: Q01DX009 (ip), vehicle: saline with Tween-80 96 % of control | dose: 50.0 mg/kg/injection, schedule: Q01DX009 (ip), vehicle: saline with Tween-80 94 % of control | dose: 100.0 mg/kg/injection, schedule: Q01DX009 (ip), vehicle: saline with Tween-80 100 % of control | [1] 100 % of control | dose: 177.0 mg/kg/injection, schedule: Q04DX002 (ip), vehicle: saline with Tween-80 95 % of control | dose: 200.0 mg/kg/injection, schedule: Q01DX009 (ip), vehicle: saline with Tween-80 93 % of control | [2] 103 % of control | dose: 266.0 mg/kg/injection, schedule: Q04DX002 (ip), vehicle: saline with Tween-80 98 % of control | dose: 400.0 mg/kg/injection, schedule: Q01DX009 (ip), vehicle: saline with Tween-80 93 % of control | dose: 600.0 mg/kg/injection, schedule: Q04DX002 (ip), vehicle: saline with Tween-80 95 % of control

O=C(Nc1ccc(F)cc1)Oc1ccc([N+](=O)[O-])cc1
inactive: dose: 25.0 mg/kg/injection, schedule: Q01DX009 (ip), vehicle: saline 106 % of control | dose: 50.0 mg/kg/injection, schedule: Q01DX009 (ip), vehicle: saline 100 % of control | [3] 97 % of control and 106 % of control | [4] 95 % of control | [5] 97 % of control

CC1(C)N=C(N)N=C(N)N1c1cccc(OCc2cccc(N)c2)c1
inactive: dose: 5.0 mg/kg/injection, schedule: Q01DX001 (ip), vehicle: saline 98 % of control | dose: 10.0 mg/kg/injection, schedule: Q01DX001 (ip), vehicle: saline 101 % of control | dose: 20.0 mg/kg/injection, schedule: Q01DX001 (ip), vehicle: saline 96 % of control | dose: 40.0 mg/kg/injection, schedule: Q01DX001 (ip), vehicle: saline 93 % of control | dose: 80.0 mg/kg/injection, schedule: Q01DX001 (ip), vehicle: saline 113 % of control

CCOC(=O)C1(C(=O)OCC)CCC2Nc3cc4c(cc3C(=O)N21)OCO4 (stereo not given)
inactive: dose: 12.5 mg/kg/injection, schedule: Q04DX003 (ip), vehicle: Klucel (hydroxypropylcellulose) (HPC) 99 % of control | dose: 25.0 mg/kg/injection, schedule: Q04DX003 (ip), vehicle: Klucel (hydroxypropylcellulose) (HPC) 100 % of control | dose: 50.0 mg/kg/injection, schedule: Q04DX003 (ip), vehicle: Klucel (hydroxypropylcellulose) (HPC) 96 % of control

CC(=O)NCCCOc1ccc(N)cc1
inactive: [6] 96 % of control | [7] 102 % of control | [8] 105 % of control

O=S(=O)(O)c1ccc(CCCCCCCCl)cc1
inactive: dose: 100.0 mg/kg/injection, schedule: Q04DX002 (ip), vehicle: Klucel (hydroxypropylcellulose) (HPC) 100 % of control | dose: 200.0 mg/kg/injection, schedule: Q04DX002 (ip), vehicle: Klucel (hydroxypropylcellulose) (HPC) 90 % of control

O=C(c1cccc(C(=O)N(c2ccccc2)C2CCCCC2)c1)N(c1ccccc1)C1CCCCC1
inactive: [9] 100 % of control | [10] 94 % of control | [11] 98 % of control

CCC(O)C1CCCO1 (stereo not given)
inactive: dose: 25.0 mg/kg/injection, schedule: Q04DX002 (ip), vehicle: saline 103 % of control | dose: 50.0 mg/kg/injection, schedule: Q04DX002 (ip), vehicle: saline 92 % of control | [6] 104 % of control | [12] 103 % of control | [7] 95 % of control | [8] 93 % of control

O=C(NCC(=O)N1CCCC1C(=O)OCc1ccccc1)OCc1ccccc1 (stereo not drawn) (Cbz-Gly-[ξP]-OBn)
inactive: [13] 106 % of control | [14] 106 % of control | [15] 102 % of control

C[C@]12CCC(=O)C=C1CC[C@@H]1[C@@H]2[C@@H](O)C[C@@]2(C)[C@H]1CC[C@]2(O)C(=O)COC(=O)COCC(=O)O
inactive: dose: 100.0 mg/kg/injection, schedule: Q04DX003 (sc), vehicle: Klucel (hydroxypropylcellulose) (HPC) 101 % of control | dose: 200.0 mg/kg/injection, schedule: Q04DX003 (sc), vehicle: Klucel (hydroxypropylcellulose) (HPC) 102 % of control | dose: 400.0 mg/kg/injection, schedule: Q04DX003 (sc), vehicle: Klucel (hydroxypropylcellulose) (HPC) 101 % of control

Cc1ccccc1N=Nc1c(O)[nH]c2ccccc12
inactive: dose: 100.0 mg/kg/injection, schedule: Q01DX001 (ip), vehicle: acetone 93 % of control | dose: 200.0 mg/kg/injection, schedule: Q01DX001 (ip), vehicle: acetone 95 % of control | dose: 400.0 mg/kg/injection, schedule: Q01DX001 (ip), vehicle: acetone 96 % of control

O=[N+]([O-])c1ccc(SCCCN2CCCCC2)c([N+](=O)[O-])c1
inactive: dose: 50.0 mg/kg/injection, schedule: Q01DX001 (ip), vehicle: carboxymethylcellulose (CMC) 96 % of control

Oc1ccc(Br)cc1C=Nc1cnc2ccccc2c1
inactive: dose: 100.0 mg/kg/injection, schedule: Q01DX001 (ip), vehicle: carboxymethylcellulose (CMC) 90 % of control | dose: 200.0 mg/kg/injection, schedule: Q01DX001 (ip), vehicle: carboxymethylcellulose (CMC) 90 % of control

O=C(O)C1CCCCC1C(=O)N(Cc1ccccc1)Cc1ccccc1 (stereo not given)
inactive: [9] 98 % of control | [10] 102 % of control | [11] 90 % of control

CC(C)(CC(=O)O)NC(=O)c1ccccc1
inactive: dose: 100.0 mg/kg/injection, schedule: Q01DX001 (ip), vehicle: other 95 % of control | dose: 200.0 mg/kg/injection, schedule: Q01DX001 (ip), vehicle: other 106 % of control | dose: 400.0 mg/kg/injection, schedule: Q01DX001 (ip), vehicle: other 103 % of control

Cc1c(Cl)cccc1NC(=O)c1ccccc1C(=O)O
inactive: [9] 98 % of control | [13] 96 % of control | [10] 104 % of control | [14] 100 % of control | [11] 102 % of control | [15] 102 % of control

Nc1nc2nn(-c3ccccc3)nc2c(=O)[nH]1
inactive: dose: 100.0 mg/kg/injection, schedule: Q04DX003 (ip), vehicle: saline with Tween-80 100 % of control | dose: 200.0 mg/kg/injection, schedule: Q04DX003 (ip), vehicle: saline with Tween-80 93 % of control | dose: 400.0 mg/kg/injection, schedule: Q04DX003 (ip), vehicle: saline with Tween-80 94 % of control

[N-]=[N+]=C1C(=O)NC(=O)NC1C(=O)O (stereo not given)
inactive: dose: 75.0 mg/kg/injection, schedule: Q01DX009 (ip), vehicle: Klucel (hydroxypropylcellulose) (HPC) 103 % of control | dose: 100.0 mg/kg/injection, schedule: Q01DX001 (ip), vehicle: Klucel (hydroxypropylcellulose) (HPC) 96 % of control | dose: 150.0 mg/kg/injection, schedule: Q01DX009 (ip), vehicle: Klucel (hydroxypropylcellulose) (HPC) 119 % of control | dose: 200.0 mg/kg/injection, schedule: Q01DX001 (ip), vehicle: Klucel (hydroxypropylcellulose) (HPC) 100 % of control | dose: 300.0 mg/kg/injection, schedule: Q01DX009 (ip), vehicle: Klucel (hydroxypropylcellulose) (HPC) 107 % of control | dose: 400.0 mg/kg/injection, schedule: Q01DX001 (ip), vehicle: Klucel (hydroxypropylcellulose) (HPC) 86 % of control

CCN(CC)C(=O)COc1ccc(Cl)cc1
inactive: [12] 114 % of control | dose: 200.0 mg/kg/injection, schedule: Q04DX002 (ip), vehicle: saline 107 % of control | dose: 400.0 mg/kg/injection, schedule: Q04DX002 (ip), vehicle: saline 118 % of control

O=C1OC(=O)c2c(Br)c(Br)c(Br)c(Br)c21
inactive: [3] 103 % of control | [4] 97 % of control | [5] 107 % of control

CC12C=CC(=O)C=C1CCC1C3CCC(O)(C(=O)CO)C3(C)CC(O)C12F (stereo not given)
inactive: dose: 25.0 mg/kg/injection, schedule: Q04DX003 (sc), vehicle: steriod suspending solution 108 % of control | dose: 50.0 mg/kg/injection, schedule: Q04DX003 (sc), vehicle: steriod suspending solution 106 % of control | dose: 100.0 mg/kg/injection, schedule: Q04DX003 (sc), vehicle: steriod suspending solution 123 % of control | dose: 150.0 mg/kg/injection, schedule: Q04DX003 (sc), vehicle: steriod suspending solution 100 % of control | dose: 225.0 mg/kg/injection, schedule: Q04DX003 (sc), vehicle: steriod suspending solution 111 % of control | dose: 335.0 mg/kg/injection, schedule: Q04DX003 (sc), vehicle: steriod suspending solution 105 % of control

NC(=S)N/N=C\c1nccc2ccsc12
inactive: [1] 113 % of control | [2] 92 % of control | dose: 400.0 mg/kg/injection, schedule: Q04DX002 (ip), vehicle: saline with Tween-80 103 % of control

— PubChem BioAssay AID248 (DTP/NCI, 2004)
